Results from US20150315179A1, “COMPOUNDS AND METHODS OF TREATING NEUROLOGICAL DISORDERS” (Torrey Pines Institute For Molecular Studies, priority 2014, published 2015).

Key:
[1] = Brain levels after i.p. injection (LC-MS); type: in vivo, mouse
Procedure: (3). Since blood brain barrier (BBB) is the main obstacle for drug development for any CNS disorders, we first wanted to verify whether compound THPI-244 enters the brain. We followed protocols exactly as published previously from our laboratory (Hayes, C D et al., 2013, BMC Med. 26, 11.81). […] We generated a standard graph (FIG. 1.4 (middle)) to be used in the quantitation of THPI-244 in the brain after intraperitoneal (i.p.) injections at 0.2 mg/kg body weight.

[2] = system: PI3Kα, MAPK, PLC-γ, P75NTR pathways; assay: Signal transduction analysis, NT2 cells; type: cell-based, human
Source text: (2). THPI-244 increases sAPPα by a novel mechanism of upregulating TrkA, a neurotrophic receptor. Therefore, in addition to increasing neuroprotective sAPPα and decreasing toxic Aβ, THPI-244 mediated increased TrkA protein levels are expected to provide neurotrophic support. Following the validation of the effect of THPI-244 in increasing sAPPα levels in CHO cells, NT2 cells, AD fibroblasts and human primary neurons, we were interested in identifying the molecular target of THPI-244 for unraveling the molecular mechanism by which it increases sAPPα which in turn can predict toxicity profile and whether to pursue long-term studies. Increased protein levels of both native and phosphorylated form of TrkA in NT2 cells and mouse brains by THPI-244 validated TrkA as the target.

[3] = system: Aβ42 levels, NT2 cells stably expressing APP751; assay: Aβ42 ELISA, NT2 stable cells; type: cell-based, human
Procedure: (§1) (5). To confirm the effect of THPI-244 on sAPPα levels in a neuronal cell line and by a tertiary assay, we exposed human Neuron-committed Teratocarcinoma cell line (NT2) stably expressing human APP751 to different concentrations of THPI-244 for 24 h and compared with that of Bryostatin, a classical activator of PKC known to stimulate sAPPα release. […] Levels of sAPPα were measured by ELISA using commercially available kit (cat #27734, IBL-America, Minneapolis, Minn., USA). […] Similar biphasic effect of Bryostatin was confirmed for Aβ42 also, measured again in NT2 stable cells by ELISA (cat # KHB3441, Life Technologies, Grand Island, N.Y., USA). Consistent with sAPPα, THPI-244 decreased Aβ42 levels dose-dependently starting from 50 nM (28%, p<0.05) to 2000 nM (64%, p<0.001) (n=4 independent experiments) (FIG. 1.7). Thus THPI-244 increased non-amyloidogenic processing of APP in NT2 cells.

[4] = system: sAPPα release, NT2 cells stably expressing human APP751; assay: sAPPα ELISA, NT2 cells expressing APP751; type: cell-based; settings: 24 h
Procedure: as §1

sAPPα = assay: Mouse brain lysate immunoblot, sAPPα; type: in vivo; settings: i.p. 100 mg/kg for 5 days, brain lysates
Procedure: FIGS. 9.2A and B illustrate that THPI-244 increases TrkA and sAPPα in the mouse brain. FIG. 9.2A illustrates that THPI-244 was administered to mice by i.p. injections at 100 mg/kg body weight for 5 days and the brain lysates were subjected to immunoblots. Specific antibodies were used to detect TrkA and sAPPα. […] Data are mean±SEM, n=3*, p<0.05, ***, p<0.001.

[5] = system: sAPPα levels, human primary neurons transiently transfected with APP751 with Swedish mutation; assay: sAPPα ELISA, human primary neurons transfected with APP751; type: cell-based
Procedure: (1). […] Therefore, we first used fibroblasts derived from AD patients (AG06263C, Coriell Cell repository, supported by NINDS/NIH) and exposed to THPI-244 for 24 h and measured sAPPα release by ELISA as done above for NT2 cells. […] We also confirmed dose-dependent effect of THPI-244 on sAPPα levels in human primary neurons transiently transfected with APP751 with Swedish mutation which is trafficked differently from WT APP and releases more sAPPα. Human neurons were grown on specially coated glass coverslips (cat # GG-18-PDL, NeuVitro, Germany). We could reproducibly achieve nearly 30% transfection efficiency using a nanoparticle based transfection reagent called Neuromag (cat # NM150299, OZ Biosciences, France).

human primary neurons [6] = assay: Neurite outgrowth, Sholl analysis of dendritic intersections; type: cell-based; settings: 2DIV until 6DIV
Source text: (4). The most important property of THPI-244 is its ability to increase neurite outgrowth and dendritic intersections in human primary neurons. Since both TrkA and sAPPα promote neuron growth and provide trophic support, we tested whether treatment of human primary neurons with THPI-244 induces neurite outgrowth. […] Considering an enormous potential for such an excellent results in human neurons, we did systematic analysis by also treating neurons in the presence of TrkA inhibitor to verify if the increased neurite outgrowth is mediated by TrkA receptor. Sholl analysis using ImageJ software of individual neurons (at least 30 per group) immunostained for MAP2 antibody confirmed our initial findings. […] This confirmed that THPI-244 increases TrkA protein levels which has vital role in regulating neuritic outgrowth.

human primary neurons [7] = assay: MTT cytotoxicity, human primary neurons; type: cell-based
Source text: (§2) (4). Toxicity is another crucial limitation for successful drug development as evidenced by recent failure of γ-secretase inhibitors at the clinical trials due to cytotoxicity (Cole, S L and Vassar, R, 2007, Mol. Neurodeg. 2, 22-47; Doody R S, et al. 2013. N. Eng. J. Med. 369, 341-350). Therefore we measured cytotoxicity by very sensitive MTT assay as described previously (Hayes, C D., et al. 2013, BMC Medicine. 26, 11.81; 23; Hayes, C D., et al., 2012, PLoS One 7, e45841) in human primary neurons obtained from a commercial source (cat #1520, ScienCell, Carlsbad, Calif., USA) and fibroblasts derived directly from A D patients (cat# AG06263C, Coriell Institute Cell repository supported by NINDS, NIH). […] We directly used human neurons for toxicity studies so as to reduce the chances of future failure at a later stage due to toxicity.

[8] = system: fibroblasts derived from AD patients; assay: MTT cytotoxicity, AD fibroblasts; type: cell-based, human; settings: 24 h exposure
Source text: as §2

[9] = i.p. 0.2 mg/kg body weight, mouse

O=C(Cc1ccccc1)N[C@H](CNc1nc(CN2CCN(C(=O)Cc3ccccc3)CC2)cs1)c1ccccc1 [THPI-244]
amount remaining in the brain at 240 min [1, 9]: negligible amount | time to maximum levels in the brain [1, 9]: ≤ 5 min | blood-brain barrier passage ([1]; i.p. administration, mouse brain): passes through the blood-brain barrier | MAPK or PLC-γ pathways [2]: not | PI3Kα pathway [2]: activation | decrease of Aβ42 levels ([3]; 50 nM): 28% | decrease of Aβ42 levels ([3]; 2000 nM): 64% | concentration from which Aβ42 decrease is significant ([3]; ELISA): 50 nM | concentration from which sAPPα increase is significant [4]: 50 nM | increase of sAPPα (sAPPα): 89% | increase of sAPPα levels ([5]; 50 nM): 171% | increase of sAPPα levels ([5]; 2000 nM): 301% | number of dendritic intersections (human primary neurons [6]; Sholl analysis): highly significant increase | number of dendritic intersections (human primary neurons [6]; THPI-244 with TrkA inhibitor): almost completely prevented the increased intersections | concentration from which cytotoxicity is significant (human primary neurons [7]; MTT, 24 h exposure, human primary neurons): 40 µM | therapeutic window (human primary neurons [7]; human primary neurons and AD fibroblasts): 800 | concentration from which cytotoxicity is significant [8]: 50 µM
